Test results reported in patent US20240383874A1, “BENZENE RING DERIVATIVE, AND COMPOSITION AND PHARMACEUTICAL USE THEREOF” (Xizang Haisco Pharmaceutical Co., Ltd., priority 2020, published 2024).
Structures can show the parent of a compound that is named as a salt. Where two headings read alike, the source gives them in different places.

Columns and labels:
[1] = Pharmacokinetic test in rats; type: in vivo; details: rat, po; male SD rats, single dose i.g. 5 mg/kg, plasma, 0-24 h
Description: Test objective: in this test, a single dose of test compounds was administered to SD rats intragastrically, and the concentrations of the test compounds in plasma of the rats were measured to evaluate pharmacokinetic characteristics of the test compounds in the rats.
Test animals: male SD rats, 200-250 g, 6-8 weeks old, 3 rats/compound, purchased from Chengdu Dossy Experimental Animals Co., Ltd.
Test method: on the day of the test, 3 SD rats were randomly grouped according to their body weights. The animals were fasted with water available for 12 to 14 hours one day before the administration of a test compound, and were fed 4 hours after the administration.
Sampling: before and after the administration, 0.1 mL of blood was taken from the orbits of the rats under isoflurane anesthesia, and placed in an EDTAK2 centrifuge tube. Centrifugation was carried out at 5000 rpm at 4C for […], and the plasma was collected.
Time points for plasma collection in G1 group: 0, 5 min, 15 min, 30 min, 1 h, 2 h, 4 h, 6 h, 8 h, and 24 h.
Before analysis and detection, all samples were stored at −80° C. The samples were analyzed quantitatively by LC-MS/MS.

[2] = test system: 22RV1 cells; experiment: Experiment 2 on inhibiting 22RV1 cell proliferation (7 days, CellTiter-Glo); type: cell-based; details: 1% css-FBS phenol red-free medium, incubated with compound 7 days, read-out: IC50 values on proliferation inhibition of 22RV1 cells
In short: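 22RV1 cells plated at 2000/well in phenol red-free medium with 1% css-FBS and treated next day with compound for 7 days at 37 °C. Viability read by CellTiter-Glo luminescence relative to DMSO vehicle; IC50 from dose-response fit.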

Row | SMILES | AUC(0-t) [1] | IC50 ([2]; Homo sapiens, 22Rv1, 168 h) | IC50 [2]
1 | CC(C)(c1ccc(OCc2ccnc(N3CCC(CN4CCC(C5CCN(c6cc7c(cc6F)C(=O)N(C6CCC(=O)NC6=O)C7=O)CC5)CC4)CC3)n2)cc1)c1cc(Cl)cc(C#N)c1 (stereo not shown) [Compound 78, 3-chloro-5-(2-(4-((2-(4-((1′-(2-(2,6-dioxopiperidin-3-yl)-6-fluoro-1,3-dioxoisoindolin-5-yl)-[4,4′-bipiperidin]-1-yl)methyl)piperidin-1-yl)pyrimidin-4-yl)methoxy)phenyl)propan-2-yl)benzonitrile] | 2350 ± 309 ng·h/mL |  | 
2 | Cn1c(=O)n(C2CCC(=O)NC2=O)c2ccc(N3CCC(C4CCN(CC5CCN(c6nccc(COc7ccc(C(C)(C)c8cc(Cl)c(OCCCl)c(C#N)c8)cc7)n6)CC5)CC4)CC3)cc21 (stereo not shown) [Compound 98 trifluoroacetate, 3-chloro-2-(2-chloroethoxy)-5-(2-(4-((2-(4-((1′-(1-(2,6-dioxopiperidin-3-yl)-3-methyl-2-oxo-2,3-dihydro-1H-benzo[d]imidazol-5-yl)-[4,4′-bipiperidin]-1-yl)methyl)piperidin-1-yl)pyrimidin-4-yl)methoxy)phenyl)propan-2-yl)benzonitrile] | 492 ± 266 ng·h/mL | 621 nM | 
3 | [2H]C([2H])([2H])Oc1c(Cl)cc(C(C)(C)c2ccc(OCc3ccnc(N4CCC(CN5CCC(C6CCN(c7ccc8c(c7)n(C)c(=O)n8C7CCC(=O)NC7=O)CC6)CC5)CC4)n3)cc2)cc1C#N (stereo not shown) [Compound 99 trifluoroacetate, 3-chloro-5-(2-(4-((2-(4-((1′-(1-(2,6-dioxopiperidin-3-yl)-3-methyl-2-oxo-2,3-dihydro-1H-benzo[d]imidazol-5-yl)-[4,4′-bipiperidin]-1-yl)methyl)piperidin-1-yl)pyrimidin-4-yl)methoxy)phenyl)propan-2-yl)-2-(methoxy-d3)benzonitrile] | 541 ± 80 ng·h/mL | 427 nM | 
4 | CCOc1c(Cl)cc(C(C)(C)c2ccc(OCc3ccnc(N4CCC(CN5CCC(C6CCN(c7ccc(C(=O)NC8CCC(=O)NC8=O)nc7)CC6)CC5)CC4)n3)cc2)cc1C#N (stereo not shown) [Compound 111 trifluoroacetate, 5-(1′-((1-(4-((4-(2-(3-chloro-5-cyano-4-ethoxyphenyl)propan-2-yl)phenoxy)methyl)pyrimidin-2-yl)piperidin-4-yl)methyl)-[4,4′-bipiperidin]-1-yl)-N-(2,6-dioxopiperidin-3-yl)picolinamide] | 574 ± 59 ng·h/mL | 290 nM | 
5 | COc1c(Cl)cc(C(C)(C)c2ccc(OCc3ccnc(N4CCC(CN5CCC(C6CCN(c7cc8c(cc7F)n(C7CCC(=O)NC7=O)c(=O)n8C)CC6)CC5)CC4)n3)cc2)cc1C#N (stereo not shown) [Compound 123 trifluoroacetate, 3-chloro-5-(2-(4-((2-(4-((1′-(1-(2,6-dioxopiperidin-3-yl)-6-fluoro-3-methyl-2-oxo-2,3-dihydro-1H-benzo[d]imidazol-5-yl)-[4,4′-bipiperidin]-1-yl)methyl)piperidin-1-yl)pyrimidin-4-yl)methoxy)phenyl)propan-2-yl)-2-methoxybenzonitrile] | 1190 ± 724 ng·h/mL | 527 nM | 
6 | CC(Oc1ccc(C(C)(C)c2cc(Cl)cc(C#N)c2)cc1)c1ccnc(N2CCC(CN3CCC(C4CCN(c5cc6c(cc5F)C(=O)N(C5CCC(=O)NC5=O)C6=O)CC4)CC3)CC2)n1 (stereo not shown) [Compound 127, 3-chloro-5-(2-(4-(1-(2-(4-((1′-(2-(2,6-dioxopiperidin-3-yl)-6-fluoro-1,3-dioxoisoindolin-5-yl)-[4,4′-bipiperidin]-1-yl)methyl)piperidin-1-yl)pyrimidin-4-yl)ethoxy)phenyl)propan-2-yl)benzonitrile] | 1860 ± 185 ng·h/mL |  | 549 nM
7 | CC(C)(c1ccc(OCc2ccnc(N3CCC4(CC3)CCN(C3CC5(CCN(c6ccc7c(c6)C(=O)N(C6CCC(=O)NC6=O)C7=O)CC5)C3)CC4)n2)cc1)c1cc(Cl)cc(C#N)c1 (stereo not shown) [Compound 128, 3-chloro-5-(2-(4-((2-(9-(7-(2-(2,6-dioxopiperidin-3-yl)-1,3-dioxoisoindolin-5-yl)-7-azaspiro[3.5]nonan-2-yl)-3,9-diazaspiro[5.5]undecan-3-yl)pyrimidin-4-yl)methoxy)phenyl)propan-2-yl)benzonitrile] | 604 ± 149 ng·h/mL |  | 132 nM
8 | CC(C)(c1ccc(OCc2ccnc(N3CCC4(CCN(CC5CC6(CCN(c7ccc8c(c7)C(=O)N(C7CCC(=O)NC7=O)C8=O)CC6)C5)CC4)CC3)n2)cc1)c1cc(Cl)cc(C#N)c1 (stereo not shown) [Compound 129, 3-chloro-5-(2-(4-((2-(9-((7-(2-(2,6-dioxopiperidin-3-yl)-1,3-dioxoisoindolin-5-yl)-7-azaspiro[3.5]nonan-2-yl)methyl)-3,9-diazaspiro[5.5]undecan-3-yl)pyrimidin-4-yl)methoxy)phenyl)propan-2-yl)benzonitrile] | 812 ± 304 ng·h/mL |  | 569 nM

Further lines, results first:

Row | AUC(0-t) [1] | IC50 ([2]; Homo sapiens, 22Rv1, 168 h) | IC50 [2] | SMILES
9 | 867 ± 66 ng·h/mL | 507 nM |  | CC(C)(c1ccc(OCc2ccnc(N3CCC(CN4CCC(C5CCN(c6ccc7c(c6)C(=O)N(C6CCC(=O)NC6=O)C7=O)CC5)CC4)CC3)n2)cc1)c1cc(Cl)cc(C#N)c1 (stereo not shown) [Compound 37 trifluoroacetate, 3-chloro-5-(2-(4-((2-(4-((1′-(2-(2,6-dioxopiperidin-3-yl)-1,3-dioxoisoindolin-5-yl)-[4,4′-bipiperidin]-1-yl)methyl)piperidin-1-yl)pyrimidin-4-yl)methoxy)phenyl)propan-2-yl)benzonitrile]
10 | 827 ± 211 ng·h/mL | 463 nM |  | COc1c(Cl)cc(C(C)(C)c2ccc(OCc3ccnc(N4CCC(CN5CCC(C6CCN(c7ccc(C(=O)NC8CCC(=O)NC8=O)nc7)CC6)CC5)CC4)n3)cc2)cc1C#N (stereo not shown) [Compound 112 trifluoroacetate, 5-(1′-((1-(4-((4-(2-(3-chloro-5-cyano-4-methoxyphenyl)propan-2-yl)phenoxy)methyl)pyrimidin-2-yl)piperidin-4-yl)methyl)-[4,4′-bipiperidin]-1-yl)-N-(2,6-dioxopiperidin-3-yl)picolinamide]
11 | 686 ± 336 ng·h/mL |  |  | CCOc1c(Cl)cc(C(C)(C)c2ccc(OCc3ccnc(N4CCC(CN5CCC6(CC5)CN(c5ccc7c(c5)n(C)c(=O)n7C5CCC(=O)NC5=O)C6)CC4)n3)cc2)cc1C#N (stereo not shown) [Compound 118 trifluoroacetate, 3-chloro-5-(2-(4-((2-(4-((2-(1-(2,6-dioxopiperidin-3-yl)-3-methyl-2-oxo-2,3-dihydro-1H-benzo[d]imidazol-5-yl)-2,7-diazaspiro[3.5]nonan-7-yl)methyl)piperidin-1-yl)pyrimidin-4-yl)methoxy)phenyl)propan-2-yl)-2-ethoxybenzonitrile]
12 | 1430 ± 209 ng·h/mL |  |  | COc1c(Cl)cc(C(C)(C)c2ccc(OCc3ccnc(N4CCC(CN5CCC(C6CCN(c7ccc(N8CCC(=O)NC8=O)cc7)CC6)CC5)CC4)n3)cc2)cc1C#N [Compound 120, 3-chloro-5-(2-(4-((2-(4-((1′-(4-(2,4-dioxotetrahydropyrimidin-1(2H)-yl)phenyl)-[4,4′-bipiperidin]-1-yl)methyl)piperidin-1-yl)pyrimidin-4-yl)methoxy)phenyl)propan-2-yl)-2-methoxybenzonitrile]
13 | 665 ± 264 ng·h/mL |  | 483 nM | CC(C)(c1ccc(OCc2ccnc(N3CCC(CN4CCC(C5CCN(c6ccc7c(c6)C(=O)N(C6CCC(=O)NC6=O)C7=O)CC5)CC4)C3)n2)cc1)c1cc(Cl)cc(C#N)c1 (stereo not shown) [Compound 130, 3-chloro-5-(2-(4-((2-(3-((1′-(2-(2,6-dioxopiperidin-3-yl)-1,3-dioxoisoindolin-5-yl)-[4,4′-bipiperidin]-1-yl)methyl)pyrrolidin-1-yl)pyrimidin-4-yl)methoxy)phenyl)propan-2-yl)benzonitrile]
14 | 446 ± 225 ng·h/mL |  | 507 nM | CC(C)(c1ccc(OCc2ccnc(N3CCC(N4CCC(C5CCN(c6ccc7c(c6)C(=O)N(C6CCC(=O)NC6=O)C7=O)CC5)CC4)CC3)n2)cc1)c1cc(Cl)cc(C#N)c1 (stereo not shown) [Compound 131, 3-chloro-5-(2-(4-((2-(1″-(2-(2,6-dioxopiperidin-3-yl)-1,3-dioxoisoindolin-5-yl)-[4,1′:4′,4″-terpiperidin]-1-yl)pyrimidin-4-yl)methoxy)phenyl)propan-2-yl)benzonitrile]
